# Test results taken from patent US11414474B2, “Long-acting adrenomedullin derivatives” (University of Miyazaki, priority 2014, dated 2022).
# What was measured:
# in vivo = conditions: male, Wistar, rat, iv
# Text: Each 11 to 14-week-old male Wistar rat was anesthetized by the inhalation of isoflurane. After tracheotomy, inhalational anesthesia was controlled at an isoflurane concentration of 1.5 to 2.5% and a flow rate of 0.6 to 0.8 L/min. The right jugular vein was isolated from the rat, and a catheter tube corresponding to 26 G was inserted thereto. Next, the left carotid artery was isolated from the rat thus treated, and a catheter tube corresponding to 23 G was inserted thereto. […] From the catheter inserted in the carotid artery, 300 μl of blood was collected over time from the start of the administration. Immediately, EDTA-2Na (300 μg) and aprotinin (21 μg) were added to the obtained blood sample, and the mixture was further centrifuged under conditions involving 3000 rpm and 10 minutes to obtain plasma. The AM concentration in the plasma of each sample was measured by chemiluminescent enzyme immunoassay. The half-lives in blood of the first and second phases were calculated from the measurement results of the AM concentration in the plasma using a two-compartment model.
# AM receptor = biological target: T1, AM receptor (Homo sapiens, UniProt Q16602); experiment: Intracellular cAMP concentration-increasing effect in AM receptor-expressing HEK293 cells (cAMP ELISA); assay type: cell-based
# T1 construct: expressed in transfected cells; host or cells: HEK293 cell line
# Method: Then, the intracellular cAMP concentration in the HEK293 cells of each test sample was measured using an ELISA kit for cAMP measurement (GE Healthcare Japan Corp., #RPN2251).
# [1] = test system: blood pressure of the rat; experiment: Blood pressure-lowering effect after single intravenous dose in anesthetized rats; assay type: in vivo; conditions: intravenous single dose 10 nmol/kg
# Method: From the catheter tube of the right jugular vein, a physiological saline-heparin solution (physiological saline: 100 ml; heparin: 1000 units) was infused at 2.4 ml/hr. […] The catheter inserted in the carotid artery was connected to a pressure transducer. […] In the figure, the longitudinal axis indicates a difference obtained by subtracting the average blood pressure before the administration of each drug from the average blood pressure at the time of the administration of each drug.
# In the case of these derivatives, the blood pressure-lowering effect was sustained even 90 minutes after the administration. […] The blood pressure-lowering effect of the adrenomedullin derivative shown in this test was well consistent with the prolonged half-life in blood shown in the above test.
# [2] = test system: DSS-induced enteritis (inflammatory bowel disease model); experiment: Therapeutic effect on DSS-induced inflammatory bowel disease model (total score, length of intestinal tract); assay type: in vivo, mouse; parameters: total score, median value / total score, mean±standard deviation: scale not given here; conditions: for total score as compared with the control group: Steel's multiple comparison test, p<0.05 or P<0.01
# Method: The body weight of the subject mouse was measured 3, 5, 7, 10 and 14 days after the start of the administration.
# The body weight of the subject mouse and the form of stool thereof were evaluated 3, 5, 7, 10 and 14 days after the start of the administration on the basis of scoring criteria given below. The obtained scores were summed to calculate the total score of each sample.
# The intestinal tract excised by anatomy was opened along its longitudinal axis, and fat tissues were removed, followed by washing with physiological saline. Next, the length of the intestinal tract was measured.
# The total score evaluated by the procedures described above is indicated by a median value [mean±standard deviation]. The total scores of the control group obtained 3, 5, 7, 10 and 14 days after the start of the administration were 0.0 [0.6±0.3], 4.0 [3.7±0.4], 6.0 [5.4±0.5], 3.5 [4.1±0.4] and 0.0 [0.0±0.0], respectively.
# [3] = second-phase half-life in blood
# [4] = 0.02 nmol/kg/hr, 3 days after the start of the administration
# [5] = 0.1 nmol/kg/hr, 3 days after the start of the administration
# [6] = 0.5 nmol/kg/hr, 3 days after the start of the administration
# T1 sequence (Q16602 23-461): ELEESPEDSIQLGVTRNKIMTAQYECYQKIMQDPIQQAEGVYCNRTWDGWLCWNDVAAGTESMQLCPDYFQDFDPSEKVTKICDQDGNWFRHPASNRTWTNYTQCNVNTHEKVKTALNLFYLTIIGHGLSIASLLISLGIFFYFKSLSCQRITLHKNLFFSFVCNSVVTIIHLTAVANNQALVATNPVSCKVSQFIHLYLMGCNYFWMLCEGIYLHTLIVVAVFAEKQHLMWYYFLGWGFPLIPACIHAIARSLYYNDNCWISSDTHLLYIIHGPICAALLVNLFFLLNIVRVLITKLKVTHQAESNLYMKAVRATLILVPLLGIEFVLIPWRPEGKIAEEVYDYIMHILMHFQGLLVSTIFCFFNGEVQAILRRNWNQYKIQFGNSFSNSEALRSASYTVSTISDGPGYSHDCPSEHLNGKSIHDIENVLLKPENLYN
# T1 sequence (O60895 43-175 partner): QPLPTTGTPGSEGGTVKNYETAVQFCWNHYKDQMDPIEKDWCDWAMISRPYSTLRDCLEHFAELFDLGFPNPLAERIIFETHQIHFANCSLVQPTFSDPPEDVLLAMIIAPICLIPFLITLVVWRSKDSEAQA
compound,measurement,setting,value
CCCCCCCCCCCCCCCC(=O)N[C@@H](Cc1ccc(O)cc1)C(=O)N[C@@H](CCCNC(=N)N)C(=O)N[C@@H](CCC(N)=O)C(=O)N[C@@H](CO)C(=O)N[C@@H](CCSC)C(=O)N[C@@H](CC(N)=O)C(=O)N[C@@H](CC(N)=O)C(=O)N[C@@H](Cc1ccccc1)C(=O)N[C@@H](CCC(N)=O)C(=O)NCC(=O)N[C@@H](CC(C)C)C(=O)N[C@@H](CCCNC(=N)N)C(=O)N[C@@H](CO)C(=O)N[C@@H](Cc1ccccc1)C(=O)NCC(=O)N[C@H]1CSSC[C@@H](C(=O)N[C@H](C(=O)N[C@H](C(=O)N[C@@H](CCC(N)=O)C(=O)N[C@@H](CCCCN)C(=O)N[C@@H](CC(C)C)C(=O)N[C@@H](C)C(=O)N[C@@H](Cc2c[nH]cn2)C(=O)N[C@@H](CCC(N)=O)C(=O)N[C@H](C(=O)N[C@@H](Cc2ccc(O)cc2)C(=O)N[C@@H](CCC(N)=O)C(=O)N[C@@H](Cc2ccccc2)C(=O)N[C@H](C(=O)N[C@@H](CC(=O)O)C(=O)N[C@@H](CCCCN)C(=O)N[C@@H](CC(=O)O)C(=O)N[C@@H](CCCCN)C(=O)N[C@@H](CC(=O)O)C(=O)N[C@@H](CC(N)=O)C(=O)N[C@H](C(=O)N[C@@H](C)C(=O)N2CCC[C@H]2C(=O)N[C@@H](CCCNC(=N)N)C(=O)N[C@@H](CO)C(=O)N[C@@H](CCCCN)C(=O)N[C@H](C(=O)N[C@@H](CO)C(=O)N2CCC[C@H]2C(=O)N[C@@H](CCC(N)=O)C(=O)NCC(=O)N[C@@H](Cc2ccc(O)cc2)C(N)=O)[C@@H](C)CC)C(C)C)[C@@H](C)O)[C@@H](C)CC)C(C)C)[C@@H](C)O)NC(=O)[C@H]([C@@H](C)O)NC(=O)CNC(=O)[C@H](Cc2ccccc2)NC(=O)[C@H](CCCNC(=N)N)NC1=O [Pal-h.AM(1-52)],half-life,in vivo; first-phase half-life in blood,3.51 min
same,half-life,in vivo; [3],123 min
same,EC50,AM receptor,3.24 nM
same,maximum response value of increase in cAMP concentration as compared with h.AM(1-52),AM receptor; AM receptor-expressing HEK293 cells,substantially equivalent
same,effect on blood pressure,[1],lowered the blood pressure
same,maximum pressure drop value compared with h.AM(1-52),[1],lower than the value of h.AM(1-52)
"CC[C@H](C)[C@H](NC(=O)[C@H](CCC(N)=O)NC(=O)[C@H](Cc1c[nH]cn1)NC(=O)[C@H](C)NC(=O)[C@H](CC(C)C)NC(=O)[C@H](CCCCN)NC(=O)[C@H](CCC(N)=O)NC(=O)[C@@H](NC(=O)[C@@H](NC(=O)[C@@H]1CSSC[C@H](NC(=O)CNC(=O)[C@H](Cc2ccccc2)NC(=O)[C@H](CO)NC(=O)[C@H](CCCNC(=N)N)NC(=O)[C@H](CC(C)C)NC(=O)CNC(=O)[C@H](CCC(N)=O)NC(=O)[C@H](Cc2ccccc2)NC(=O)[C@H](CC(N)=O)NC(=O)[C@H](CC(N)=O)NC(=O)[C@H](CCSC)NC(=O)[C@H](CO)NC(=O)[C@H](CCC(N)=O)NC(=O)[C@H](CCCNC(=N)N)NC(=O)[C@@H](N)Cc2ccc(O)cc2)C(=O)N[C@@H](CCCNC(=N)N)C(=O)N[C@@H](Cc2ccccc2)C(=O)NCC(=O)N[C@@H]([C@@H](C)O)C(=O)N1)[C@@H](C)O)C(C)C)C(=O)N[C@@H](Cc1ccc(O)cc1)C(=O)N[C@@H](CCC(N)=O)C(=O)N[C@@H](Cc1ccccc1)C(=O)N[C@H](C(=O)N[C@@H](CC(=O)O)C(=O)N[C@@H](CCCCN)C(=O)N[C@@H](CC(=O)O)C(=O)N[C@@H](CCCCN)C(=O)N[C@@H](CC(=O)O)C(=O)N[C@@H](CC(N)=O)C(=O)N[C@H](C(=O)N[C@@H](C)C(=O)N1CCC[C@H]1C(=O)N[C@@H](CCCNC(=N)N)C(=O)N[C@@H](CO)C(=O)N[C@@H](CCCCN)C(=O)N[C@H](C(=O)N[C@@H](CO)C(=O)N1CCC[C@H]1C(=O)N[C@@H](CCC(N)=O)C(=O)NCC(=O)N[C@@H](Cc1ccc(O)cc1)C(N)=O)[C@@H](C)CC)C(C)C)[C@@H](C)O [h.AM(1-52), reference compound]",half-life,in vivo; first-phase half-life in blood,0.61 min
same,half-life,in vivo; [3],18.9 min
same,effect on blood pressure,[1],lowered the blood pressure
same,time after the administration at which the blood pressure before the administration was restored,[1],30 min
same,time of maximum pressure drop after the administration,[1],2 min
"PEG5000-h.AM(1-52): human adrenomedullin (1-52) N-terminally linked to PEG having an average molecular weight of 5000 via 1-oxo-1,6-hexanediyl","total score, mean±standard deviation",[2]; [4],0.8±0.2
same,"total score, median value",[2]; [4],1.0
same,"total score, mean±standard deviation","[2]; 0.02 nmol/kg/hr, 5 days",2.8±0.5
same,"total score, median value","[2]; 0.02 nmol/kg/hr, 5 days",2.5
same,"total score, mean±standard deviation","[2]; 0.02 nmol/kg/hr, 7 days",5.7±0.4
same,"total score, median value","[2]; 0.02 nmol/kg/hr, 7 days",5.5
same,"total score, mean±standard deviation","[2]; 0.02 nmol/kg/hr, 10 days",3.1±0.8
same,"total score, median value","[2]; 0.02 nmol/kg/hr, 10 days",2.5
same,length of the intestinal tract (mean±standard deviation),"[2]; 0.02 nmol/kg/hr, 14 days",69.4±1.5 mm
same,"total score, mean±standard deviation","[2]; 0.02 nmol/kg/hr, 14 days",0.0±0.0
same,"total score, median value","[2]; 0.02 nmol/kg/hr, 14 days",0.0
same,"total score, mean±standard deviation",[2]; [5],0.7±0.3
same,"total score, median value",[2]; [5],0.0
same,"total score, mean±standard deviation","[2]; 0.1 nmol/kg/hr, 5 days",1.9±0.5
same,"total score, median value","[2]; 0.1 nmol/kg/hr, 5 days",1.5
same,"total score, mean±standard deviation","[2]; 0.1 nmol/kg/hr, 7 days",4.1±0.4
same,"total score, median value","[2]; 0.1 nmol/kg/hr, 7 days",5.0
same,"total score, mean±standard deviation","[2]; 0.1 nmol/kg/hr, 10 days",2.0±0.5
same,"total score, median value","[2]; 0.1 nmol/kg/hr, 10 days",2.0
same,total score as compared with the control group,"[2]; 0.1 nmol/kg/hr, 10 days",significant decrease
same,length of the intestinal tract (mean±standard deviation),"[2]; 0.1 nmol/kg/hr, 14 days",71.4±0.9 mm
same,"total score, mean±standard deviation","[2]; 0.1 nmol/kg/hr, 14 days",0.0±0.0
same,"total score, median value","[2]; 0.1 nmol/kg/hr, 14 days",0.0
same,total score as compared with the control group,"[2]; 0.5 nmol/kg/hr, 5, 7 and 10 days",significant decrease
same,"total score, mean±standard deviation",[2]; [6],1.3±0.3
same,"total score, median value",[2]; [6],1.0
same,"total score, mean±standard deviation","[2]; 0.5 nmol/kg/hr, 5 days",1.1±0.3
same,"total score, median value","[2]; 0.5 nmol/kg/hr, 5 days",1.5
same,"total score, mean±standard deviation","[2]; 0.5 nmol/kg/hr, 7 days",3.0±0.3
same,"total score, median value","[2]; 0.5 nmol/kg/hr, 7 days",3.0
same,"total score, mean±standard deviation","[2]; 0.5 nmol/kg/hr, 10 days",2.1±0.4
same,"total score, median value","[2]; 0.5 nmol/kg/hr, 10 days",2.0
same,length of the intestinal tract (mean±standard deviation),"[2]; 0.5 nmol/kg/hr, 14 days",72.4±0.9 mm
same,"total score, mean±standard deviation","[2]; 0.5 nmol/kg/hr, 14 days",0.0±0.0
same,"total score, median value","[2]; 0.5 nmol/kg/hr, 14 days",0.0
same,length of the intestinal tract as compared with the control group,"[2]; all of 0.02, 0.1 and 0.5 nmol/kg/hr, Dunnett's multiple comparison test, P<0.05 or P<0.01",significantly different
same,effect on blood pressure,[1],lowered the blood pressure
same,maximum pressure drop value compared with h.AM(1-52),[1],lower than the value of h.AM(1-52)
